The record followed here is patent US8993717B2, “Gadd45beta targeting agents” (Imperial Innovations Limited, priority 2009, dated 2015).

Structures are written as SMILES. Where two headings read alike, the source gives them in different places. Square brackets hold non-standard residues; d marks the D form. Peptide text beside a SMILES is read from it. * marks the point of attachment. Cbz = O=C(OCc1ccccc1)*

In data set [1] the test system is primary multiple myeloma cells. Kind of data set: Trypan blue exclusion assay in primary multiple myeloma cells from patients. It counts as cell-based, human. Conditions: 1 μM or 10 μM, 48 hrs, 5 patients. The text has this:
To confirm that Z-/mDTPs retain cytotoxic activity in primary multiple myeloma cells, we examined the effects of Z-DTP1 and Z-DTP2 on the survival of multiple myeloma cells isolated from patients with a clinical diagnosis of multiple myeloma. To this end, multiple myeloma cells were purified from bone marrow (BM) aspirates of multiple myeloma patients by […], using CD138-conjugated magnetic beads, essentially as described in the reference by Hideshima T. et all 2006, Blood 107: 4053-4062. The purity of multiple myeloma cells was confirmed by flow cytometric, using and CD138 and anti-CD45 antibodies, also essentially in accordance with the procedure described in the reference by Hideshima T. et all 2006, Blood 107: 4053-4062. Purified CD138^+ BM cells were then cultured at a concentration of 4×10^5 cells/ml in wells of 96-well plates and treated with either 1 μM or 10 μM of Z-DTP1, Z-DTP2 or Z-DNC for 48 hrs. Cell viability was measured by cell counting using trypan blue exclusion assays (FIGS. 14A, 14B, 14C, 14D, and 14E).

The test system of data set [2] is sh-NS-expressing ARH-77 cells.
The subject of data set [3] is sh-MKK7-expressing ARH-77 cells.
Data set [4] deals with T1, Gadd45β/MKK7 interaction (Homo sapiens, UniProt O14733).
T1 construct: The GST-fused full-length kinase was coated for 16 h at 4° C., at a concentration of 42 nM; made in house
T1 sequence (O14733 1-419): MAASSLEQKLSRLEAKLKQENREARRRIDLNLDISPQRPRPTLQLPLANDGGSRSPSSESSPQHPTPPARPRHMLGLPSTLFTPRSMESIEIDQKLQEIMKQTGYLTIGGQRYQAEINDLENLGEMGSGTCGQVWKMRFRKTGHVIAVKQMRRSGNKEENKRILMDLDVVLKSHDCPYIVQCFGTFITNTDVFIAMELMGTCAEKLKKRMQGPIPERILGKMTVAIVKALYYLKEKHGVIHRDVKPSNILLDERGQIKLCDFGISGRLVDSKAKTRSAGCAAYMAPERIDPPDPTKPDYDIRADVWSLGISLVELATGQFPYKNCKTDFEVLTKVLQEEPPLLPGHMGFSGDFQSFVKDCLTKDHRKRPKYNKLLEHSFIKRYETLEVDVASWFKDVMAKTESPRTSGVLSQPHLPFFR
Kind of data set: ELISA competition assay of biotin-hGadd45β binding to coated GST-MKK7. In outline: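 GST-MKK7 (42 nM) coated in Tris pH 7.5 buffer, 16 h, 4 °C; biotin-hGadd45β (21 nM) added with competitor peptides (0.01–100 nM), 1 h, 37 °C. Streptavidin-HRP/o-phenylenediamine read at 490 nm; binding expressed as % of signal without competitor.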
(In general: An ELISA detects its analyte on a solid surface through an enzyme-linked reagent.)

The subject of data set [5] is U266, KMS-11, NCI-H929, BJAB and U937 tumour cell lines. Kind of data set: [3H]thymidine incorporation assay in tumour cell lines at 10 μM. The data set is classed as cell-based, human. Conditions: up to 144 hrs, result in words. The method, then:
All experiments were performed in triplicate.
On the technique in general: Uptake of a labelled nucleoside into DNA is a usual measure of proliferation.

[6] abbreviates: Table V, FIG. 3C, read-out: IC50 ELISA.

As a reminder, the IC50 is the concentration that gives 50% inhibition. In the case of `NC(=O)[C@@H](Cc1ccccc1)NC(=O)[C@@H](Cc1c[nH]cn1)NC(=O)[C@@H](CC(=O)O)NC(=O)[C@@H](Cc1ccc(O)cc1)NC(=O)OCc1ccccc1` [Compound 1, Z-Tyr-Asp-His-Phe-NH2] (Cbz-[dY][dD][dH][dF]-NH2), in data set [1], the “cytotoxic activity in primary multiple myeloma cells” value is listed as “strong cytotoxic activity”. The IC50 in data set [2] is 1400 nM; in data set [3] it was over 10000 nM; in data set [4] (Table V, peptides 0.01-10 nM, read-out: IC50 ELISA), 0.22 nM.
For `N=C(N)NCCC[C@@H](NC(=O)[C@@H](CCC(=O)O)NC(=O)[C@@H](Cc1ccc(O)cc1)NC(=O)OCc1ccccc1)C(=O)N[C@H](Cc1ccccc1)C(N)=O` [Compound 9, Z-D-Tyr-D-Glu-D-Arg-D-Phe-NH2] (Cbz-[dY][dE][dR][dF]-NH2), the “cytotoxic activity in primary multiple myeloma cells” value in data set [1] was “strong cytotoxic activity”. Moreover, the IC50 is 302 nM in data set [2] and over 10000 nM in data set [3]. Besides, the “tumoricidal/cytotoxic activity in tumour cell lines” value in data set [5] is “high cytotoxic activity”.
In the case of `CC(=O)N[C@H](Cc1ccc(O)cc1)C(=O)N[C@H](CCC(=O)O)C(=O)N[C@H](CCCNC(=N)N)C(=O)N[C@H](Cc1ccccc1)C(N)=O` [DTP2, Acetyl-(D-Tyr)-(D-Glu)-(D-Arg)-(D-Phe)-NH2] (Ac-[dY][dE][dR][dF]-NH2), the “tumoricidal/cytotoxic activity in tumour cell lines” value in data set [5] is “inactivity”. In addition, the IC50 in data set [4] (setting [6]) came out at 0.19 nM.
Taken in the same sequence, the figures for `CC(=O)N[C@H](Cc1ccc(O)cc1)C(=O)N[C@H](CC(=O)O)C(=O)N[C@H](Cc1c[nH]cn1)C(=O)N[C@H](Cc1ccccc1)C(N)=O` [DTP1, Acetyl-(D-Tyr)-(D-Asp)-(D-His)-(D-Phe)-NH2] (Ac-[dY][dD][dH][dF]-NH2) were “not” and 0.22 nM.
With `CC(=O)N[C@H](Cc1ccc(O)cc1)C(=O)N[C@H](CCCNC(=N)N)C(=O)N[C@H](Cc1ccccc1)C(N)=O` [Compound 17, Ac-D-Tyr-D-Arg-D-Phe-NH2] (Ac-[dY]-[dR]-[dF]-NH2), the “cytotoxic activity in primary multiple myeloma cells” value in data set [1] was “Strong cytotoxic activity”. Besides, the IC50 in data set [2] is 303 nM; in data set [3], over 10000 nM; in data set [4], 0.157 nM.
